Measurements reported in patent publication US9913914B2, “Cell transport” (priority 2013, dated 2018).
No end group written: not given here. *: point of attachment. FITC = O=C1OC2(c3ccc(O)cc3Oc3cc(O)ccc32)c2ccc(NC(=S)*)cc21

What was measured:
[1] = tested on: PKA-dependent process of Dictyostelium aggregation; assay: Aggregation of starved Dictyostelium cultures (PKA-dependent); format: cell-based, Dictyostelium discoideum; conditions: 10 micromolar
Protocol: FIG. 6. Cupid can transport small molecule cargo into cells. Starved Dictyostelium cultures were treated with no peptide (A), cupid B peptide (B), PKI peptide (C) and Cupid B-PKI peptide (D) and analysed for aggregation.
Upon starvation Dictyostelium initiates a developmental program leading to the aggregation of free-living amoebae. Genetic research has uncovered the crucial role that cyclic adenosine monophosphate (cAMP) plays in orchestrating as an extracellular chemoattractant in the initial aggregation process through Dictyostelium cAMP-dependent Protein Kinase (DdPKA). DdPKA can be inhibited by PKI, a 20 amino acid peptide sequence derived from an inhibitor of PKA, by PKI binding directly to the catalytic unit of PKA.
By creating a Cupid B-PKI fusion protein we aimed to establish that it prevents starving Dictyostelium cells from aggregating in vivo.

[2] = tested on: Dictyostelium discoideum amoeba cells; format: cell-based; conditions: for entry of fluorescently labeled peptide into cells: 10 μM, 1 hour, Dictyostelium cell; for time for half-maximal permeation: FITC-labelled peptide at 20 micromolar, Dictyostelium cells
Protocol: (§1) Peptides were labelled with Fluorescein isothiocyanate (FITC) using a FITC labeling kit as per instructions (Pierce, UK). When added to cell cultures the labeled peptides were visualized using a fluorescent microscope by exciting the FITC with a 488 nm spectral line, argon-ion laser (Excitation wavelength of 494 nm and an Emission wavelength of 518 nm).
AX2 wild type Dictyostelium cells were grown on SM agar plates seeded with Aerobacter aerogenes bacteria (also known as Klebsiella aerogenes) as a food source.
Cupid A ([…]; SEQ ID NO: 2) and Cupid B ([…]; SEQ ID NO: 1) were chemically synthesized labelled with FITC at the amino terminal. The peptides were added to cultured eukaryotic cells of Dictyostelium discoideum amoeba for varying amounts of time up to 2 hours. Cells were then washed and prepared for examination under a fluorescent microscope (FIG. 1). The time courses of permeation were compared to the class 3 CPP, the Antennapedia peptide, pANT which was also labelled with FITC in chemical synthesis (FIG. 2).

[3] = tested on: human embryonic kidney cells; assay: Permeation of FITC-labelled peptide into human embryonic kidney cells; format: cell-based; conditions: 10 μM, 1 hour, human kidney cell
Text: as §1

human fibroblasts = assay: Permeation of FITC-labelled peptide into human fibroblasts; format: cell-based; conditions: 10 μM, 1 hour, Human Fibroblast cell
Text: as §1

Row | Substance | effect on Dictyostelium aggregation [1] | entry of fluorescently labeled peptide into cells [2] | time for half-maximal permeation [2] [min] | entry of fluorescently labeled peptide into cells [3] | entry of fluorescently labeled peptide into cells (human fibroblasts) | reversibility of permeation ([2]; media containing FITC-peptide replaced with peptide-free media)
1 | Cupid B peptide: RRVQIWFQNKRAKVKR (SEQ ID NO: 1), cell penetrating peptide from Dictyostelium discoideum (listed as Dictyostelium discoideum) | neither the Cupid B peptide nor the PKI peptide alone have any effect on aggregation |  |  |  |  | 
2 | FITC-Cupid A: Cupid A (SEQ ID NO: 2) chemically synthesized, labelled with FITC at the amino terminal ({FITC}-RSVQIWFQNRRAKAR; listed as Dictyostelium discoideum) |  | entering cultured cells | 28 |  |  | 
3 | FITC-Cupid B: Cupid B (SEQ ID NO: 1) chemically synthesized, labelled with FITC at the amino terminal ({FITC}-RRVQIWFQNKRAKVKR; listed as Dictyostelium discoideum) |  | entering cultured cells | 17 | entering cultured cells | entering cultured cells | reversible
